In US6657061B2, “Polymorphic forms of 6-[4-1(1-cyclohexyl-1H-tetrazol-5-yl)butoxy]-3,4-dihydro-2(1H)-quinolinone” (priority 2001, dated 2003):

What was measured:
[1] = stability of the polymorphic form (statement only); assay type: physicochemical; settings: solid form; test conditions not given
[2] = DSC thermogram of combined Forms A, B and C; relative solubility inferred from melting points; assay type: physicochemical; settings: suggested by the lower DSC melting point (weaker crystal packing forces), not measured directly
Excerpt: Characterization of Form A of cilostazol, Form B of cilostazol, and Form C of cilostazol was further completed using DSC thermograms, shown in FIGS. 3, 4, and 5, respectively, with DSC thermograms for combinations of Form A and Form B; Form B and Form C; and Forms A, B, and C are shown in FIGS. 6, 7, and 8 respectively. DSC data were generated using a Mettler-Toledo DSC 821^e (Columbus, Ohio) with a Julabo FT900 intercooler chiller (Julabo Company; Allentown, Pa.). In general, samples were analyzed in a vented, sealed aluminum pan. Because the endothermic peak may vary depending upon the rate of heating and the calibration and precision of the instrument, with the amount of peak variation dependent upon the heating rate used, all thermograms included herein were run under the same, consistent conditions: heating at 10° C. per minute under a nitrogen purge at 40 mL/minute.
FIG. 8 illustrates a DSC thermogram for the combination of Form A, Form B and Form C having a second heating cycle with a maximum temperature of about 110° C. with a holding time of about 30 minutes. The peaks in the third heating cycle show a Form A to Form B to Form C peak area ratio of approximately 8:2:1, respectively, with the relative amount of Form A, Form B and Form C further variable on the heat of enthalpy of each polymorphic form.

[3] = Form A as prepared by the procedures of the '479 patent; cited from earlier work
[4] = Form A as prepared by the procedures of the '479 patent; cited from earlier work; remark: listed apart in the source

| SMILES | stability of polymorph [1] | solubility relative to Form A [2] | aqueous solubility [3] | bioavailability [4] |
| --- | --- | --- | --- | --- |
| O=C1CCc2cc(OCCCCc3nnnn3C3CCCCC3)ccc2N1 [Form B, 6-[4-(1-cyclohexyl-1H-tetrazol-5-yl)butoxy]-3,4-dihydro-2(1H)-quinolinone] | stable | more soluble than Form A | – | – |
| O=C1CCc2cc(OCCCCc3nnnn3C3CCCCC3)ccc2N1 [Form A, 6-[4-(1-cyclohexyl-1H-tetrazol-5-yl)butoxy]-3,4-dihydro-2(1H)-quinolinone] | – | – | low | low |
